{"source": "patent EP0274444A2", "about": "“Solution inbuprofen complexes, compositions and processes for preparing the same” (priority 1987, dated 1988)", "assay": "pH of the resulting solutions (pH meter with combination electrode)", "format": "physicochemical", "conditions": "Mole Ratio Cyclodextrin:Ibuprofen 0:1 (ibuprofen alone, saturated solution)", "experimental": "The pH of each solution was measured using an Orion Model 701 pH meter with a combination electrode.", "data": [{"molecule": "CC(C)Cc1ccc(C(C)C(=O)O)cc1", "note": "(stereo not shown) [Ibuprofen, ibuprofen]", "values": [{"measurement": "pH", "value": 4.56}]}]}
